Measurements reported in ChEMBL document CHEMBL5136989, “A review on the treatment of multiple myeloma with small molecular agents in the past five years” (Eur J Med Chem, 2022).

Tested on: Proteasome
Experiment: Inhibition of proteasome (unknown origin)
Format: subcellular, Homo sapiens
Settings: not given

SMILES	IC50 [nM]
NS(=O)(=O)OC[C@@H]1C[C@@H](n2ccc3c(N[C@H]4CCc5ccccc54)ncnc32)C[C@@H]1O [PEVONEDISTAT]	4
CC(C)C[C@H](NC(=O)[C@H](CCc1ccccc1)NC(=O)CN1CCOCC1)C(=O)N[C@@H](Cc1ccccc1)C(=O)N[C@@H](CC(C)C)C(=O)[C@@]1(C)CO1 [CARFILZOMIB]	33
CC(=O)N[C@@H](CCc1ccccc1)C(=O)N[C@@H](CC(C)C)C(=O)N[C@@H](Cc1ccccc1)C(=O)N[C@@H](CC(C)C)C(=O)[C@]1(C)CO1	260
CC(C)C[C@H](NC(=O)CNC(=O)c1cc(Cl)ccc1Cl)B(O)O [IXAZOMIB]	5
CC[C@H](C)[C@H](NC(=O)[C@H]([C@@H](C)CC)N(C)C(C)=O)C(=O)N[C@H](C(=O)N[C@@H](CC(C)C)C(=O)[C@@]1(C)CO1)[C@@H](C)O [EPOXOMYCIN]	261

Tested on: not listed separately
Experiment: Anticancer activity in human multiple myeloma cells
Format: functional, cell-based
Settings: Multiple myeloma cell

SMILES	IC50 [nM]
O=C(/C=C\n1cnc(-c2cc(C(F)(F)F)cc(C(F)(F)F)c2)n1)NNc1cnccn1 [SELINEXOR]	44
CC1(C)CCC(CN2CCN(c3ccc(C(=O)NS(=O)(=O)c4ccc(NCC5CCOCC5)c([N+](=O)[O-])c4)c(Oc4cnc5[nH]ccc5c4)c3)CC2)=C(c2ccc(Cl)cc2)C1 [VENETOCLAX]	26.7

Tested on: not listed separately
Experiment: Cytotoxicity against human multiple myeloma cells by WST-1 assay
Format: functional, cell-based
Settings: Multiple myeloma cell

SMILES	IC50 [nM]
CC(=O)c1cc([N+](=O)[O-])c(Sc2cccc(Cl)c2Cl)s1	6000
CCc1c(-c2ccc(C(=O)NC)nc2)cnc(N)c1-c1ccc(O)cc1	1340
CCc1c(-c2ccc3[nH]ncc3c2)cnc(N)c1-c1ccc(O)cc1	750
O=C1c2ccccc2C(=O)c2oc(-c3cccnc3)nc21	100
CS(=O)(=O)N1CCN(C(=S)Nc2ccc([N+](=O)[O-])cc2)CC1	33900
CCCSc1nc(NCCN)c2nnn(Cc3ccc(Cl)cc3)c2n1	1100
CN(C)CCC(CSc1ccccc1)Nc1ccc(S(=O)(=O)NC(=O)c2ccc(N3CCN(Cc4ccccc4-c4ccc(Cl)cc4)CC3)cc2)cc1[N+](=O)[O-] (stereo not drawn)	< 500
C=CC(=O)N1CC/C(=C\c2ccc(F)c([N+](=O)[O-])c2)C(=O)/C(=C/c2ccc(F)c([N+](=O)[O-])c2)C1	43
CCN(CCCNC(=O)c1ccc2nc3c(c(Cl)c2c1)CCCC3)Cc1ccccc1	22600
O=C(CBr)N1CC([N+](=O)[O-])([N+](=O)[O-])C1 [NIBROZETONE]	1250
N#C/C(=C/c1cccc(Br)n1)C(=O)NCc1cccc(CNC(=O)/C(C#N)=C\c2cccc(Br)n2)c1	240
CN(CCCNC(=O)c1ccc2nc3c(c(Cl)c2c1)CCCC3)Cc1ccccc1	28100
CC(NC(=O)/C(C#N)=C/c1cccc(/C=C(\C#N)C(=O)NC(C)c2ccccc2)c1)c1ccccc1 (stereo not drawn)	400
CCCC(NC(=O)/C(C#N)=C/c1cccc(Br)n1)c1ccccc1 (stereo not drawn)	1600

Tested on: not listed separately
Experiment: Immunomodulatory activity in human MM cells
Format: functional, cell-based
Settings: multiple myeloma cell

SMILES	IC50 [nM]
O=C1CCC(N2C(=O)c3ccccc3C2=O)C(=O)N1 (stereo not drawn) [THALIDOMIDE]	194000
O=C1CC[C@H](N2Cc3c(OCc4ccc(CN5CCOCC5)cc4)cccc3C2=O)C(=O)N1 [IBERDOMIDE]	13
Nc1cccc2c1CN(C1CCC(=O)NC1=O)C2=O (stereo not drawn) [LENALIDOMIDE]	81
Cc1ccc(NC(=O)NCc2ccc3c(c2)CN(C2CCC(=O)NC2=O)C3=O)cc1Cl (stereo not drawn)	0.3
Nc1cccc2c1C(=O)N(C1CCC(=O)NC1=O)C2=O (stereo not drawn) [POMALIDOMIDE]	35

Tested on: not listed separately
Experiment: Induction of mitotic arrest in human multiple myeloma cells
Format: functional, cell-based
Settings: multiple myeloma cell

SMILES	IC50 [nM]
CON(C)C(=O)N1N=C(c2cc(F)ccc2F)S[C@@]1(CCCN)c1ccccc1 [FILANESIB]	6.1
Cc1ccc(CN(CC(O)COc2cccc3[nH]ccc23)C(C)(C)C)cc1 (stereo not drawn)	28300
O=[N+]([O-])c1ccc(O)c2ncccc12 [NITROXOLINE]	5250
c1cc(CN2CCCNCCNCCCNCC2)ccc1CN1CCCNCCNCCCNCC1 [PLERIXAFOR]	27
CN(C)c1ccccc1CN1CCCN(Cc2ccccc2N(C)C)C1c1ccncc1	5000

Tested on: Multiple myeloma cancer stem cell
Experiment: Cytotoxicity against human Myeloma-stem like cells
Format: functional, cell-based
Settings: not given

SMILES	IC50 [nM]
C=CCn1c(=O)c2cnc(Nc3ccc(N4CCN(C)CC4)cc3)nc2n1-c1cccc(C(C)(C)O)n1 [ADAVOSERTIB]	310
